Data from patent EP0536208B1, “1,2-DIHYDRO-3H-DIBENZISOQUINOLINE-1,3-DIONE ANTICANCER AGENTS” (RESEARCH CORPORATION TECHNOLOGIES, INC., priority 1990, dated 1992).

Tests used:
Colon-38 Adenocarcinoma = details: mice; cited from earlier work
[1] = tested on: P-388/ADR (adriamycin-Resis-tant); details: mice; cited from earlier work
HT29p30 = assay: Activity against human colon tumor cells (MTT assay, 3 day drug exposure); assay type: cell-based; details: cells plated 24 hr. prior to drug addition, read-out: Concentration for 50% inhibition of colony formation for human colon tumors
Protocol: (§1) For example, the compounds of the present invention were evaluated for cytotoxic activities in cloned human colon carcinomas. The clonogenic assays were conducted in accordance with the procedure described hereinbelow: 1) Colony Forming Assays in Soft Agar: Fresh human or murine tumors are disaggregated into single cell suspensions using mechanical, hypoosmotic and/or enzymatic (trypsin) methods. The single cells (about 5 X 10^4-10^5) are plated in 35 mm plastic petri dishes onto a 1 ml "feeder layer" of 0.3% agar dissolved in growth medium containing 5-10% vol/vol of heat-inactivated fetal bovine serum, molten 0.3% agar and the antibiotics penicillin (100 u/mL) and streptomycin (100 ug/mL). Drug exposures can be performed for one hour or continuously (drugs added to final plating medium). Tumor cell colonies > 60 uM in size are counted by automated image analysis after 10-20 days of incubation in a humidified, 5-10% CO2-gassed environment maintained at 37°C. Inhibition of colony formation is calculated based on comparisons to control (untreated) plates wherein the growth of hundreds of colonies/plate is typical. (Salmon SE, et al., N Engl J Med 298(24):1321-1327, 1978).
(§2) Compounds of the present invention were tested for their in vitro activity in tumor cells sensitive and resistant to standard anti-cancer agents. The tumor cell lines used in this protocol are 8226 human Myeloma^1; 8226/Dox-40^2, L-1210/Murine Leukemia, multidrug resistant L-210/^3, 2780 Human Ovarian Cancer and 2780/AD^4. Each of these resistant cell lines is known as a multidrug resistant or "MDR" cell line. These cell lines produce a 170,00 molecular weight membrane protein termed the P-glycoprotein which acts as an active drug efflux pump. Thus, once a cell produces the P-glycoprotein, it has the capability of pumping out of the cell a large variety of unrelated natural products. […] The protocol for measuring the effectiveness of compounds of the present invention is as follows: 2) In Vitro Tumor Cell Viability Assays Using MTT-Dye: Tumors are processed into a single cell suspension as described above. The cells are plated at a concentration of 3-5 X 10^4/1 mL well into plastic 96-well plates. […] Afterwards the medium containing the drug is removed, the cells are "washed" by centrifugation in fresh medium or phosphate-buffered saline (pH 7.4). A tetrazolium dye is then added (3,4,5-dimethylthiazol-2-yl)-2,5-diphenyl tetrazolium bromide (MTT). This dye forms a colored formazan product upon activation by mitochondrial reductases in viable cells. Typically, the formazan product is solubilized in acid-propanol or DMSO. The intensity of the color is proportional to viable cell numbers and this is quantitated by spectrophotometric absorbance ([…]) on a micro ELISA plate reader. Test results are calibrated in % control absorbance from untreated tumor cells (Mossman T: J Immunol Meth 65:55-63, 1983). Using the above procedure, Compound 1 was tested for its cytotoxic activity with respect to various tumor cell lines.

SW80p105 = assay: as above; assay type: cell-based; details: cells plated 24 hr. prior to drug addition, read-out: Concentration for 50% inhibition of colony formation for human colon tumors
Protocol: as §1, §2

[2] = tested on: 16-C Mammary Adenocarcinoma; details: cited from earlier work
LOVOp32 = assay: Activity against human colon tumor cells (MTT assay, 3 day drug exposure); assay type: cell-based; details: cells plated 24 hr. prior to drug addition, read-out: Concentration for 50% inhibition of colony formation for human colon tumors
Protocol: as §1
(§3) Compounds of the present invention were tested for their in vitro activity in tumor cells sensitive and resistant to standard anti-cancer agents. The tumor cell lines used in this protocol are 8226 human Myeloma^1; 8226/Dox-40^2, L-1210/Murine Leukemia, multidrug resistant L-210/^3, 2780 Human Ovarian Cancer and 2780/AD^4. Each of these resistant cell lines is known as a multidrug resistant or "MDR" cell line. These cell lines produce a 170,00 molecular weight membrane protein termed the P-glycoprotein which acts as an active drug efflux pump. Thus, once a cell produces the P-glycoprotein, it has the capability of pumping out of the cell a large variety of unrelated natural products. […] The protocol for measuring the effectiveness of compounds of the present invention is as follows: 2) In Vitro Tumor Cell Viability Assays Using MTT-Dye: Tumors are processed into a single cell suspension as described above. The cells are plated at a concentration of 3-5 X 10^4/1 mL well into plastic 96-well plates. Growth medium containing 5-10% (vol/vol) heat-inactivated fetal bovine serum and penicillin/streptomycin (as above) is added prior to incubation at 37°C for six days. Afterwards the medium containing the drug is removed, the cells are "washed" by centrifugation in fresh medium or phosphate-buffered saline (pH 7.4). A tetrazolium dye is then added (3,4,5-dimethylthiazol-2-yl)-2,5-diphenyl tetrazolium bromide (MTT). This dye forms a colored formazan product upon activation by mitochondrial reductases in viable cells. Typically, the formazan product is solubilized in acid-propanol or DMSO. The intensity of the color is proportional to viable cell numbers and this is quantitated by spectrophotometric absorbance ([…]) on a micro ELISA plate reader. Test results are calibrated in % control absorbance from untreated tumor cells (Mossman T: J Immunol Meth 65:55-63, 1983). Using the above procedure, Compound 1 was tested for its cytotoxic activity with respect to various tumor cell lines.

205p14 = assay: as above; assay type: cell-based; details: cells plated 24 hr. prior to drug addition, read-out: Concentration for 50% inhibition of colony formation for human colon tumors
Protocol: as §1, §3

M5-76 Sarcoma = details: cited from earlier work
[3] = tested on: P-388 lymphocytic leukemia; details: mice; cited from earlier work
FRESH HUMAN TUMORS = assay: Colony forming assay in fresh human tumors, all tumor types; assay type: cell-based; details: Total of all tumor types; .001 ug/mL continuously; tumor cell survival of less than 50% of control
Protocol: as §1, with “The” for “For example, the compounds of the present invention were evaluated for cytotoxic activities in cloned human colon carcinomas. The”, “(Salmon SE, et al., N Engl J Med 298(24):1321-1327, 1978).” left out
Fresh human tumor specimens disaggregated to single cell suspensions and exposed to .001 ug/mL of drug continuously. Percent survival represents the fraction of tumor colonies (> 60 uM size) obtained after drug treatment compared to untreated cells of the same tumor. […] Each tumor sample is analyzed in three different petri dishes (i.e., n = 3 for each sample).

Structure (SMILES)	Comparative Activity From The Literature, Days of Tumor Growth Delay (Colon-38 Adenocarcinoma) [days]	Comparative Activity From The Literature, ILS (Percentage Increased Lifespan) [1] [ILS]	IC50 (HT29p30) [nM]	IC50 (SW80p105) [nM]	Comparative Activity From The Literature, Days of Tumor Growth Delay [2] [days]	IC50 (LOVOp32) [nM]	IC50 (205p14) [nM]	Comparative Activity From The Literature, Days of Tumor Growth Delay (M5-76 Sarcoma) [days]	Comparative Activity From The Literature, ILS (Percentage Increased Lifespan) [3] [ILS]	Overall Response (FRESH HUMAN TUMORS) [%]
CN(C)CCN1C(=O)c2cccc3cc(N)cc(c23)C1=O [Amonafide, amino-N-dimethylaminoethylbenz[de]isoquinoline]	<7	35	960	570	7	600	160	7	99	
COc1cccc2c1C(=O)c1c(O)c3c(c(O)c1C2=O)C[C@@](O)(C(=O)CO)C[C@@H]3O[C@H]1C[C@H](N)[C@H](O)[C@H](C)O1 [Doxorubicin]	10	18							164	20
